The text below walks through data of patent publication US8901337B2, “Metal complexes having dual histone deacetylase inhibitory and DNA-binding activity” (Royal College of Surgeons in Ireland, priority 2009, dated 2014).

Series [1] deals with ovarian cancer cell line A2780 P. In words: MTS in vitro cytotoxicity, A2780 P. Type of series: cell-based, human. Here is the method:
(§1) Cells were cultured in the appropriate media. […] In order to retain resistance 1 μM cisplatin was added to the media of the A2780 cisR cells every third passage. A2780 cisR cells are resistant to cisplatin through a combination of decreased uptake, enhanced DNA repair/tolerance, and elevated reduced glutathione levels
(§2) All cells were kept in a humidified atmosphere with 5% CO2 at 37° C.; cells from confluent monolayers were removed from flasks by trypsin/EDTA solution and their viability determined by the trypan blue exclusion test.
(§3) Cell growth was determined by the [3-(4,5-dimethylthiazol-2-yl)-5-(3-carboxymethoxyphenyl)-2-(4-sulfophenyl)-2H-tetrazolium, inner salt, (MTS test, Promega, Southampton, UK), a colorimetric assay based on the ability of the viable cells to reduce a soluble yellow tetrazolium salt to blue formazan. 10,000 ovarian cancer cells or 3,000 fibroblast cells for example were seeded per well onto 96-well plates in 100 μl of the appropriate culture medium. 24 hr after sowing the cells, the media was removed and the cells were treated by adding 100 μl of the compound media solutions at the appropriate concentrations. cis-[Pt(NH3)2(malSAHA−2H)], cisplatin and cis-[Pt(NH3)2(mal)] were prepared freshly in cell culture media. […] The maximum percentage of dmso present in any well was less than 0.1% (v/v). cis-[Pt(NH3)2(malBel—2H)], belinostat and malbelinostat were freshly prepared in dimethyl formamide (DMF) and diluted in culture media prior to the MTS assay. The maximum percentage of DMF present in any well was 0.5% (v/v). A range of concentrations between 1 μM and 100 μM was used.
(§4) After 72 hr of treatment, 20 μl of the MTS reagent was added to each well and the plates incubated for 2 hr at 37° C. […] The percentages of surviving cells relative to untreated controls were determined.

For series [2], the system named is non-tumorigenic human dermal fibroblast cell line (NHDF). In words: MTS in vitro cytotoxicity, NHDF. It counts as cell-based. Here is the method:
In addition Normal Neonatal Human Dermal Fibroblast, NHDF, cells were cultured in Fibroblast Basal Medium (FBM®, Clonetics, Walkersville, USA) supplemented with hFGF-B, insulin, 5% FBS and gentamicin/amphotericin-B (FGM®-2 SingleQuots, Clonetics, Walkersville, USA).
as §2, §3, §4

The test system of series [3] is cisplatin resistant ovarian cancer cell line A2780 cisR. In words: MTS in vitro cytotoxicity, A2780 cisR. Type of series: cell-based, human. The protocol: as §1, §2, §3, §4
The subject of series [4] is colon cancer cell line (SW480). In words: MTS in vitro cytotoxicity, SW480. It counts as cell-based. The following applies: 72 hours, Table 1, read-out: IC50 values against SW480. The protocol:
as §2, §3, §4

Another series relates to A549 (lung cancer cells). In words: Cellular uptake of Pt (FAAS), A549. Type of series: cell-based. The following applies: 10 μM, 72 hours treatment. Here is the method: (§5) Cellular uptake of Pt compounds was measured in SKBR, SW480, A549, A2780P and CH1 cells. The cells were seeded in 60 mm tissue culture dishes with 10 mL of their respective medium and after overnight incubation, the cells were treated with the Pt complexes for 72 h at 10 μM concentration. The cell monolayers at the end of the incubation with the Pt complexes were washed (twice) with ice-cold phosphate buffered saline (PBS), trypsinized and harvested into cold (4° C.) PBS. Cell suspensions were centrifuged and the pellets were stored in PBS at −80° C. until assayed. Afterward, the pellets were digested by high pressure microwave mineralization and Pt content was determined by flameless atomic absorption spectrophotometry (FAAS). The results of cellular Pt uptake were corrected for adsorption effects. All experiments were made in triplicate.^17

Series [5] deals with A2780 P (ovarian cancer cells). In words: Cellular uptake of Pt (FAAS), A2780 P. It counts as cell-based, human. Particulars: 10 μM, 72 hours treatment. The protocol:
as §5, with “The cells were seeded in 60 mm tissue culture dishes with 10 mL of their respective medium and after overnight incubation, the cells were treated with the Pt complexes for 72 h at 10 μM concentration.” left out

The test system of the next series is CH1 (cancer cells). In words: Cellular uptake of Pt (FAAS), CH1. Type of series: cell-based. Particulars: 10 μM, 72 hours treatment. Here is the method:
as §5

Another series deals with cell line (CH1). In words: MTS in vitro cytotoxicity, CH1. Particulars: 72 hours, Table 1, read-out: IC50 values against CH1. Type of series: cell-based. The protocol:
as §2, §3, §4

For series [6], the system named is lung cancer cell line (A549). In words: MTS in vitro cytotoxicity, A549. The following applies: 72 hours, Table 1, read-out: IC50 values against A549. Type of series: cell-based. The protocol: as §2, §3, §4
Series [7] relates to breast cancer cell line (SKBR). The series is described as follows: MTS in vitro cytotoxicity, SKBR. Type of series: cell-based. Particulars: 72 hours, Table 1, read-out: IC50 values against SKBR. The protocol:
as §2, §3, §4

Series [8] deals with DNA in SW480 cells (colon cancer). In words: Pt binding to DNA in cultured cells (ICP-MS), SW480. The following applies: 43 μM of Pt complexes, 2 hours of cell treatment. It counts as cell-based. The protocol: (§6) Pt DNA binding of Pt complexes was measured in SW480 cells (colon cancer) and CH1 cells (lymphoma) or alternatively A2780 P and A2780 cisR cells (sensitive and resistant to cisplatin respectively). The cells were seeded in 60 mm tissue culture dishes with 10 ml of their respective medium. After overnight incubation the medium was removed and replaced with 10 ml of the respective medium containing a platinum complex giving a final concentration of 43 or 40 μM depending on the experiment. The cells were incubated with a given Pt complex for either 2 or 4 h depending on the experiment. The cells were trypsinised and centrifuged. The supernantant was removed and the cells washed twice with 1×PBS and centrifuged. The pellet was re-suspended in DNA buffer to which Proteinase K (20 mg/mL) and 10% SDS were added. After a gentle shake and incubation at 45° C. for two hours, RNAse (100 mg/mL) was added and the cells were incubated at 37° C. overnight. The volume of supernatant was noted and an equal volume of phenol was added.
The resulting mixture was shook for 10 min, then centrifuged for 10 min at 10° C. The supernatant was transferred into a new centrifuge tube (15 ml) and the volume was noted. To this was added an equal volume of phenol and chloroform/isoamylalcohol (24:1). The resulting mixture was shook for 10 min, then centrifuged for 10 min at 10° C. (3000 RPM). The supernatant was transferred into a new centrifuge tube (15 mL) and the volume was noted. To this was added an equal volume of chloroform. The resulting mixture was shook for 10 min, then centrifuged for 10 min at 10° C. The supernatant was transferred into a new centrifuge tube (15 mL) and the volume was noted. To this was added a volume that is 1/10 of the supernatant of 3 M sodium acetate (Ph 5.2) and three times the volume of cold 100% isopropanol (from freezer). The solution was shook gently until the DNA is precipitated. […] The absorbance of the DNA by was measured by UV spectrophotometry at 260 nm and 280 nm and the concentration of DNA calculated. Platinum bound to DNA was determined by ICP-MS.

The test system of series [9] is SW480 (colon cancer cells). The series is described as follows: Cellular uptake of Pt (FAAS), SW480. Type of series: cell-based. The following applies: 10 μM, 72 hours treatment. The protocol:
as §5

The test system of series [10] is SKBR (breast cancer cells). In words: Cellular uptake of Pt (FAAS), SKBR. It counts as cell-based. Particulars: 10 μM, 72 hours treatment. The protocol:
as §5

For series [11], the system named is DNA in CH1 cells (lymphoma). The series is described as follows: Pt binding to DNA in cultured cells (ICP-MS), CH1. Type of series: cell-based. Particulars: 43 μM of Pt complexes, 2 hours of cell treatment. The protocol:
as §6
The resulting mixture was shook for 10 min, then centrifuged for 10 min at 10° C. The supernatant was transferred into a new centrifuge tube (15 ml) and the volume was noted. […] The absorbance of the DNA by was measured by UV spectrophotometry at 260 nm and 280 nm and the concentration of DNA calculated. Platinum bound to DNA was determined by ICP-MS.

For series [12], the system named is liver cell lines (Hep-G2). The series is described as follows: MTS in vitro cytotoxicity, Hep-G2. The following applies: 72 hours, Table 1, read-out: IC50 values against Hep-G2. Type of series: cell-based. The protocol:
as §2, §3, §4

For a further series, the target named is T1, HDAC1 (Homo sapiens, UniProt Q13547).
T1 construct: purchased Cayman Chemicals, Ann Arbor, USA
In words: Cayman HDAC1 Inhibitor Screening Assay Kit (fluorescence). It counts as biochemical. Here is the method: The assay provides a fast two-step fluorescence-based method for measuring HDAC activity. Briefly, in the first step an acetylated lysine residue was incubated with HDAC1 and potential inhibitors. Deacetylation sensitises the substrate so that treatment with the HDAC developer in the second step releases a fluorescent product. The fluorescent reaction product was analysed using a plate reader with an excitation wavelengths of 350 nm and emission wavelengths of 460 nm.

Like-named read-outs stand apart in the source and are kept apart here.

T1 sequence (Q13547 whole entry): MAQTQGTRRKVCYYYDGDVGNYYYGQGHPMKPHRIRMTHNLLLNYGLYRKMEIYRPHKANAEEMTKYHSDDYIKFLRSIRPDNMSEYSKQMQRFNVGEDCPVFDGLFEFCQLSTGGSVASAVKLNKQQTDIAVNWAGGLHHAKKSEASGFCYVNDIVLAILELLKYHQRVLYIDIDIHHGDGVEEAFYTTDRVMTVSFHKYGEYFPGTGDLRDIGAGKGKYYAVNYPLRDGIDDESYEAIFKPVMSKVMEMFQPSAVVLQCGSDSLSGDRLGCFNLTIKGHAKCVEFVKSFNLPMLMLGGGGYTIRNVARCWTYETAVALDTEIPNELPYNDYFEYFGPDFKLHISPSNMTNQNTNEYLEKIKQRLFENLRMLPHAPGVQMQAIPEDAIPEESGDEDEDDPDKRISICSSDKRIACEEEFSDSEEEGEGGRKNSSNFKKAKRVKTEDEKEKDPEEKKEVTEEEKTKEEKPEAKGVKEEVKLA

With `O=C(/C=C/c1ccc(S(=O)(=O)Nc2ccc(CC(C(=O)O)C(=O)O)cc2)cc1)NO` [malBel], the IC50 in [1] (72 hours, MTS, Table 5, read-out: IC50 (μM) ± S.E.M. against A2780P) was 45.8 µM; in series [2] (72 hours, MTS, Table 5, read-out: IC50 (μM) ± S.E.M. against NHDF), 28.9 µM; in series [3] (72 hours, MTS, Table 5, read-out: IC50 (μM) ± S.E.M. against A2780CisR) it was 32.1 µM.
`[NH2][Pt]1([NH2])[O]C(=O)CC(=O)[O]1` [cis-[Pt(NH3)2(mal)]]: the IC50 in series [4] stood at 23.2 ± 1.5 µM; in series [1] (72 hours, MTS, Table 1, read-out: IC50 values against A2780 P), 16 ± 4.3 µM; in the series with cell line (CH1), 2.5 ± 0.5 µM; in [6] it was 6.3 µM; in series [7] it was 14.6 ± 2.5 µM; in series [2] (72 hours, MTS, Table 1, read-out: IC50 values against NHDF), 48 ± 2.2 µM. Moreover, the IC50 amounted to 81 ± 5.8 µM in [3] (72 hours, MTS, Table 1, read-out: IC50 values against A2780cisR) and 44.5 ± 0.9 µM in series [12]. The “Uptake of Pt complexes into A549” value in the series on A549 (lung cancer cells) stood at 357.1 ± 47.1 pmol Pt/2 × 10^6 cell. Also, in series [5], the “Uptake of Pt complexes into A2780 P” value is 220.95 ± 10.95 pmol Pt/2 × 10^6 cell. Further, the “Uptake of Pt complexes into CH1” value with CH1 (cancer cells) amounted to 282.6 ± 20.6 pmol Pt/2 × 10^6 cell. In series [8], the “DNA-bound Pt in SW480” value was 1.25 · 10^−15 moles of Pt/μg of DNA. In addition, the “Uptake of Pt complexes into SW480” value in series [9] is 127.35 ± 27.4 pmol Pt/2 × 10^6 cell. Moreover, in [10], the “Uptake of Pt complexes into SKBR” value was 488.15 ± 38.4 pmol Pt/2 × 10^6 cell. Moreover, in [11], the “DNA-bound Pt in CH1” value is 1.76 · 10^−15 moles of Pt/μg of DNA.
As for `O=C(CCCCCCC(=O)Nc1ccc(CC(C(=O)O)C(=O)O)cc1)NO` [malSAHA], at HDAC1, the “inhibition of HDAC1 (in words)” value was “inhibit HDAC1”. This compound had an IC50 on HDAC1 (at 200 μM) of 0.0595 µM.
On to `O=C(/C=C/c1cccc(S(=O)(=O)Nc2ccccc2)c1)NO` [belinostat, reference compound], for which the IC50 was less than 1 µM in series [1] (Homo sapiens, A2780, 72 h, read-out: IC50 (μM) ± S.E.M. against A2780P); 3 ± 0.5 µM in series [2] (Homo sapiens, NHDF, 72 h, read-out: IC50 (μM) ± S.E.M. against NHDF); less than 1 µM in [3] (Homo sapiens, A2780cisR, 72 h, read-out: IC50 (μM) ± S.E.M. against A2780CisR).
